“Also recorded” adds a separate entry of the source.
Assays:
[1] = Tolerability in tumor-bearing nude mice (body weight, overt clinical signs); details: either agent alone or in combination
Procedure: Female athymic nude mice weighing no less than 20-21 grams were inoculated subcutaneously in the left inguinal region of the thigh with 5×10^6 tumor cells in a delivery volume of 0.2 mL. For regression studies, the tumors were allowed to grow to a pre-determined size prior to initiation of dosing. […] Mice were dosed orally by gavage with vehicle (control group) or compound at various doses twice-daily (b.i.d.) during the week and once-daily (q.d.) on weekends. Dosing was continued for 11 consecutive days, depending on the kinetics of tumor growth and size of tumors in vehicle-treated control mice. […] During the study, tumor growth was measured three times-a-week (M, W, F) using electronic Vernier calipers. Tumor volume (mm^3) was calculated using the formula […], where L=length (mm) and W=width (shortest distance in mm) of the tumor. Body weight was measured three times-a-week and a loss of body weight >10% was used as an indication of lack of compound tolerability. […]
Female athymic nude mice weighing no less than 20-21 grams were inoculated subcutaneously in the left inguinal region of the thigh with 5×10^6 tumor cells in a delivery volume of 0.2 mL. For regression studies, the tumors were allowed to grow to a pre-determined size prior to initiation of dosing. […] During the study, tumor growth was measured three times-a-week (M, W, F) using electronic Vernier calipers. […]

MV4-11 AML cells = assay: Cell proliferation assay MV4-11, single agents and FTI/FLT3 inhibitor combinations; format: cell-based, human; details: 72-hour cell proliferation assay, FLT3 dependent cells, depending on the cell type
Description: (§1) All data points are an average of triplicate samples.
as §1

[2] = tested on: relapsed and refractory AML; details: cited from earlier work
MV4-11 tumor xenografts = assay: MV4-11 human tumor xenograft regression model in nude mice; format: in vivo; details: Tipifarnib 50 mg/kg oral single agent
Procedure: Female athymic nude mice (CD-1, nu/nu, 9-10 weeks old) were obtained from Charles River Laboratories (Wilmington, Mass.) and were maintained according to NIH standards. All mice were group housed (5 mice/cage) under clean-room conditions in sterile micro-isolator cages on a 12-hour light/dark cycle in a room maintained at 21-22° C. and 40-50% humidity. Mice were fed irradiated standard rodent diet and water ad libitum. All animals were housed in a Laboratory Animal Medicine facility that is fully accredited by the American Association for Assessment and Accreditation of Laboratory Animal Care (AAALAC). All procedures involving animals were conducted in compliance with the NIH Guide for the Care and Use of Laboratory Animals and all protocols were approved by an Internal Animal Care and Use Committee (IACUC).
On the day of study termination, a final tumor volume and final body weight were obtained on each animal. […]
The time course of the inhibitory effects of FLT3 inhibitor compounds on the growth of MV4-11 tumors is illustrated in FIG. 1. […] Percent inhibition (% I) of tumor growth was calculated versus tumor growth in the vehicle-treated Control group on the last study day.
(See FIG. 2). […] Percent Inhibition was calculated versus the mean tumor weight in the vehicle-treated control group. Statistical significance versus Control was determined by ANOVA followed by Dunnett's t-test: ** p<0.01. […]

[3] = multicenter Phase II trial, relapsed AML
[4] = patients with relapsed and refractory AML, phase I

Cn1cncc1C(N)(c1ccc(Cl)cc1)c1ccc2c(c1)c(-c1cccc(Cl)c1)cc(=O)n2C (single isomer, unassigned; (+)) [Tipifarnib, (+)-6-[amino(4-chlorophenyl)(1-methyl-1H-imidazol-5-yl)methyl]-4-(3-chlorophenyl)-1-methyl-2(1H)-quinolinone]
overt toxicity and adverse effects on body weight ([1]; 9-day treatment period): No overt toxicity
overt toxicity and adverse effects on body weight ([1]; 16-day treatment period): No overt toxicity
potency for inhibition of proliferation, single agent (MV4-11 AML cells): high nanomolar to high picomolar
>50% reduction in bone marrow blasts [2, 3]: 31 of 50
complete responses (bone marrow blasts <5%) [2, 3]: 17 of 50
patients achieving complete remission [2, 4]: 2 patients
response rate [2, 4]: ~30%
effect on tumor volume versus control (MV4-11 tumor xenografts; nine days, Day 9): not significantly reduced; also recorded: ineffective
effect on tumor growth (MV4-11 tumor xenografts; sixteen days): ineffective

Reference: patent US20060281769A1, “SYNERGISTIC MODULATION OF FLT3 KINASE USING THIENOPYRIMIDINE AND THIENOPYRIDINE KINASE MODULATORS” (priority 2005, published 2006)
